According to US11142527B2, “Dihydropyrimidine compounds and uses thereof in medicine” (SUNSHINE LAKE PHARMA CO., LTD., priority 2017, dated 2021):

System: HBV
Assay: Test of anti HBV activity in vitro (viral DNA by qPCR)
Format: cell-based
Conditions: Hepatitis B virus; HepG2.2.15 cells, viral DNA in cell culture supernatant by qPCR; read-out: EC50 values of the compound of the invention on viral replication
Protocol: Test 1: Test Method of Calculating Anti HBV EC50
HBV Cell Line and Culture Conditions
HepG2.2.15 (SELLS, PNAS, 1987 and SELLS, JV, 1988) chromosomes have an integrated complete HBV genome, and stably express viral RNA and viral protein. HepG2.2.15 cells can secrete mature HBV particles, HBsAg and HBeAg, to medium. HepG2.2.15 cells were cultured in DMEM containing 10% fetal bovine serum, 100 U/mL penicillin, 100 U/mL streptomycin, 1% non essential amino acid, 1 mM sodium pyruvate and 300 μg/mL G418.
Viral particles DNA secreted from HepG2.2.15 cells can be quantified by qPCR, and the effect of the compound on viral replication can be detected.
Test of Anti HBV Activity In Vitro
8000 HepG 2.2.15 cells per well were seeded into a 96-well plate, the plate was cultured at 37° C. and 5% CO2 for 3 days till the cells grew to full wells. Old liquid medium can be removed and replaced with new medium (200 μL) on day 0.
Formulating the compound and treating the cells in the experiment of anti virus: the compound was dissolved in DMSO to a concentration of 30 mM, and then the compound solution was diluted with DMSO to a concentration of 800 μM, and then eight dilutions at 4 fold were performed, the highest concentration is 800 μM. The serial diluted compound was added to the above plate at 1 μL per well, the highest final concentration in the experiment is 4 μM (200 fold dilution). TDF (tenofovir dipiroxil fumarate, Selleck, Cat S1400) has a highest concentration of 4 μM as a positive control. 1 μL of DMSO was added in to the […] at a final concentration of 0.5%, TDF was added in to the […] at a final concentration of 1 μM.
Detection of Viral Genomic DNA by aPCR
Primer: HBV-For-202, […]; HBV-Rev-315, […]. Copies of virus can be calculated using a standard curve plotted by using plasmid containing HBV genome and using SYBR Premix Ex Taq II—Takara DRR081S kit and 1 μL cell culture supernatant as a template. EC50 values of the compound on viral replication were calculated by a four parametric nonlinear regression model using Graphpad Prism 5 software to manage concentration—viral copy number.

Compound | EC50 [nM]
COC(=O)C1=C(CN2CCN3C(=O)N(C(C)(C)c4ccc(-c5ccc(C(=O)O)cc5)cc4)C[C@@H]3C2)NC(c2nccs2)=N[C@H]1c1ccc(F)cc1Cl (stereo in doubt) [Example 11, 4′-(2-((S)-7-(((R)-6-(2-chloro-4-fluorophenyl)-5-(methoxycarbonyl)-2-(thiazol-2-yl)-3,6-dihydropyrimidin-4-yl)methyl)-3-oxohexahydroimidazo[1,5-a]pyrazin-2(3H)-yl)prop-2-yl)-[1,1′-diphenyl]-4-carboxylic acid] | 32.5
COC(=O)C1=C(CN2CCN3C(=O)N(CC#Cc4ccc(C(=O)O)cc4)C[C@@H]3C2)NC(c2nccs2)=N[C@H]1c1ccc(F)cc1Cl [Example 1, 4-(3-((S)-7-(((R)-6-(2-chloro-4-fluorophenyl)-5-(methoxycarbonyl)-2-(thiazol-2-yl)-3,6-dihydropyrimidin-4-yl)methyl)-3-oxohexahydroimidazo[1,5-a]pyrazin-2(3H)-yl)prop-1-yn-1-yl)benzoic acid] | 8.45
COC(=O)C1=C(CN2CCN3C(=O)N(CC#Cc4cccc(C(=O)O)c4)C[C@@H]3C2)NC(c2nccs2)=N[C@H]1c1ccc(F)cc1Cl [Example 2, 3-(3-((S)-7-(((R)-6-(2-chloro-4-fluorophenyl)-5-(methoxycarbonyl)-2-(thiazol-2-yl)-3,6-dihydropyrimidin-4-yl)methyl)-3-oxohexahydroimidazo[1,5-a]pyrazin-2(3H)-yl)prop-1-yn-1-yl)benzoic acid] | 10.4
COC(=O)C1=C(CN2CCN3C(=O)N(CC#Cc4ccc(C(=O)O)cc4F)C[C@@H]3C2)NC(c2nccs2)=N[C@H]1c1ccc(F)cc1Cl [Example 4, 4-(3-((S)-7-(((R)-6-(2-chloro-4-fluorophenyl)-5-(methoxycarbonyl)-2-(thiazol-2-yl)-3,6-dihydropyrimidin-4-yl)methyl)-3-oxohexahydroimidazo[1,5-a]pyrazin-2(3H)-yl)prop-1-yn-1-yl)-3-fluorobenzoic acid] | 19.8
COC(=O)C1=C(CN2CCN3C(=O)N(c4ccc(Oc5ccc(C(=O)O)cc5)cc4)C[C@@H]3C2)NC(c2nccs2)=N[C@H]1c1ccc(F)cc1Cl [Example 6, 4-(4-((S)-7-(((R)-6-(2-chloro-4-fluorophenyl)-5-(methoxycarbonyl)-2-(thiazol-2-yl)-3,6-dihydropyrimidin-4-yl)methyl)-3-oxohexahydroimidazo[1,5-a]pyrazin-2(3H)-yl)phenoxy) benzoic acid] | 14
COC(=O)C1=C(CN2CCN3C(=O)N(c4ccc(Oc5ccc(C(=O)O)cc5)nc4)C[C@@H]3C2)NC(c2nccs2)=N[C@H]1c1ccc(F)cc1Cl [Example 7, 4-((5-((S)-7-(((R)-6-(2-chloro-4-fluorophenyl)-5-(methoxycarbonyl)-2-(thiazol-2-yl)-3,6-dihydropyrimidin-4-yl)methyl)-3-oxohexahydroimidazo[1,5-a]pyrazin-2(3H)-yl)pyridin-2-yl)oxy)benzoic acid] | 8.78
COC(=O)C1=C(CN2CCN3C(=O)N(Cc4ccc(-c5ccc(C(=O)O)cc5)cc4)C[C@@H]3C2)NC(c2nccs2)=N[C@H]1c1ccc(F)cc1Cl [Example 10, 4′-(((S)-7-(((R)-6-(2-chloro-4-fluorophenyl)-5-(methoxycarbonyl)-2-(thiazol-2-yl)-3,6-dihydroprimidin-4-yl)methyl)-3-oxohexahydroimidazo[1,5-a]pyrazin-2(3H)-yl)methyl)-[1, 1′-diphenyl]-4-carboxylic acid] | 19.9
COC(=O)C1=C(CN2CCN3C(=O)N(c4ccc(-c5ccc(C(=O)O)cc5)cc4)C[C@@H]3C2)NC(c2nccs2)=N[C@H]1c1ccc(F)cc1Cl [Example 12] | 13
COC(=O)C1=C(CN2CCN3C(=O)N(c4cc(F)cc(Oc5ccc(C(=O)O)cc5F)c4)C[C@@H]3C2)NC(c2nccs2)=N[C@H]1c1ccc(F)cc1Cl [Example 13, 4-(3-((S)-7-(((R)-6-(2-chloro-4-fluorophenyl)-5-(methoxycarbonyl)-2-(thiazol-2-yl)-3,6-dihydropyrimidin-4-yl)methyl)-3-oxohexahydroimidazo[1,5-a]pyrazin-2(3H)-yl)-5-fluorophenoxy)-3-fluorobenzoic acid] | 22.1
COC(=O)C1=C(CN2CCN3C(=O)N(c4ccc(Oc5ccc(C(=O)O)cc5F)cc4F)C[C@@H]3C2)NC(c2nccs2)=N[C@H]1c1ccc(F)cc1Cl [Example 14, 4-(4-((S)-7-(((R)-6-(2-chloro-4-fluorophenyl)-5-(methoxycarbonyl)-2-(thiazol-2-yl)-3,6-dihydropyrimidin-4-yl)methyl)-3-oxohexahydroimidazo[1,5-a]pyrazin-2(3H)-yl)-3-fluorophenoxy)-3-fluorobenzoic acid] | 22.7
COC(=O)C1=C(CN2CCN3C(=O)N(c4nc(-c5ccc(C(=O)O)cc5)cs4)C[C@@H]3C2)NC(c2nccs2)=N[C@H]1c1ccc(F)cc1Cl [Example 15, 4-(2-((S)-7-(((R)-6-(2-chloro-4-fluorophenyl)-5-(methoxycarbonyl)-2-(thiazol-2-yl)-3,6-dihydropyrimidin-4-yl)methyl)-3-oxohexahydroimidazo[1,5-a]pyrazin-2(3H)-yl)thiazol-4-yl)benzoic acid] | 10.8
COC(=O)C1=C(CN2CCN3C(=O)N(c4ccc(Oc5cccc(C(=O)O)c5)cn4)C[C@@H]3C2)NC(c2nccs2)=N[C@H]1c1ccc(F)cc1Cl [Example 16, 3-((6-((S)-7-(((R)-6-(2-chloro-4-fluorophenyl)-5-(methoxycarbonyl)-2-(thiazol-2-yl)-3,6-dihydropyrimidin-4-yl)methyl)-3-oxohexahydroimidazo[1,5-a]pyrazin-2(3H)-yl)pyridin-3-yl)oxy)benzoic acid] | 12
COC(=O)C1=C(CN2CCN3C(=O)N(c4ccc(-c5ccc(C(C)(C)C(=O)O)cc5)cc4)C[C@@H]3C2)NC(c2nccs2)=N[C@H]1c1ccc(F)cc1Cl [Example 18, 2-(4′-((S)-7-(((R)-6-(2-chloro-4-fluorophenyl)-5-(methoxycarbonyl)-2-(thiazol-2-yl)-3,6-dihydropyrimidin-4-yl)methyl)-3-oxohexahydroimidazo[1,5-a]pyrazin-2(3H)-yl)-[1,1′-diphenyl]-4-yl)-2-methyl propionic acid] | 13
COC(=O)C1=C(CN2CCN3C(=O)N(c4ccc(N5CCC(C(=O)O)CC5)cc4)C[C@@H]3C2)NC(c2nccs2)=N[C@H]1c1ccc(F)cc1Cl [Example 21, 1-(4-((S)-7-(((R)-6-(2-chloro-4-fluorophenyl)-5-(methoxycarbonyl)-2-(thiazol-2-yl)-3,6-dihydropyrimidin-4-yl)methyl)-3-oxohexahydroimidazo[1,5-a]pyrazin-2(3H)-yl)phenyl) piperidine-4-carboxylic acid] | 5
COC(=O)C1=C(CN2CCN3C(=O)N(c4ccc(C5(C(=O)O)CC5)cc4)C[C@@H]3C2)NC(c2nccs2)=N[C@H]1c1ccc(F)cc1Cl [Example 27, 1-(4-((S)-7-(((R)-6-(2-chloro-4-fluorophenyl)-5-(methoxycarbonyl)-2-(thiazol-2-yl)-3,6-dihydropyrimidin-4-yl)methyl)-3-oxohexahydroimidazo[1,5-a]pyrazin-2(3H)-yl)phenyl)cyclopropane carboxylic acid] | 10
